Results reported in patent publication US7173004B2, “Macrocyclic isoquinoline peptide inhibitors of hepatitis C virus” (Bristol-Myers Squibb Company, priority 2003, dated 2007).
Where two headings read alike, the source gives them in different places.

Target: T1, HCV NS3/4A protease complex, BMS strain (genotype 1a) (UniProt P27958, C1454S/C1711G, species not given/STRAIN_BMS)
T1 construct: b1001: DNA encoding the recombinant HCV NS3/4A protease complex (amino acids 1027 to 1711) ... a three-lysine solubilizing tail was added at the 3′-end of the NS4A coding region; fused on or other part: Three-lysine solubilising tail at the C-terminus of NS4A; A His tag is implied by the pET21b vector and Ni-NTA purification
Assay: Recombinant HCV NS3/4A protease complex FRET peptide assay, BMS strain
Format: biochemical
In short: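 Recombinant NS3/4A (aa 1027–1711) from H77C, J4L6S or BMS strains, with C1454S and C1711G mutations and three-lysine tail, expressed in E. coli and Ni-NTA/gel-filtration purified to >90%. Inhibition of cleavage of a FRET peptide substrate measured.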

[1] = NS3/4A BMS Strain, activity range classes
[2] = NS3/4A BMS strain, activity range symbols

Compound | IC50 [2] [nM] | also measured
COc1ccc2c(O[C@@H]3C[C@H]4C(=O)N[C@]5(C(=O)O)C[C@H]5/C=C\CCCSC(C)(C)[C@H](NC(=O)OC(C)(C)C)C(=O)N4C3)nccc2c1 [Compound 79, (1S,4R,6S,14R,18R)-7-cis-14-tert-Butoxycarbonylamino-13,13-dimethyl-18-(6-methoxy-isoquinolin-1-yloxy)-2,15-dioxo-12-thia-3,16-diazatricyclo[14.3.0.0^4,6]nonadec-7-ene-4-carboxylic acid] |  | IC50 [1]: 5000 to 50000 nM
COc1ccc2c(O[C@@H]3C[C@H]4C(=O)N[C@]5(C(=O)O)C[C@H]5/C=C\CCCOC[C@H](NC(=O)OC(C)(C)C)C(=O)N4C3)nccc2c1 [Compound 84, (1S,4R,6S,14S,18R)-7-cis-14-tert-Butoxycarbonylamino-18-(6-methoxyisoquinolin-1-yloxy)-2,15-dioxo-12-oxa-3,16-diazatricyclo[14.3.0.0^4,6]-nonadec-7-ene-4-carboxylic acid] |  | IC50 [1]: 50 to 500 nM
CC(C)(C)OC(=O)N[C@H]1CCCCC/C=C\[C@@H]2C[C@@]2(C(=O)NS(=O)(=O)C2CC2)NC(=O)[C@@H]2C[C@@H](Oc3nccc4ccccc34)CN2C1=O [Compound 4, [4-Cyclopropanesulfonylaminocarbonyl-18-(isoquinolin-1-yloxy)-2,15-dioxo-3,16-diaza-tricyclo[14.3.0.0^4,6]nonadec-7-en-14-yl]-carbamic acid tert-butyl ester] | < 50 | 
COc1ccc2c(OC3CC4C(=O)NC5(C(=O)NS(=O)(=O)C6CC6)CC5C=CCCCOC(C)C(NC(=O)OC(C)C)C(=O)N4C3)nccc2c1 (centres unmarked) [Compound 64] | < 50 | 
COC(=O)N[C@H]1CCCCC/C=C\[C@@H]2C[C@@]2(C(=O)NS(=O)(=O)C2CC2)NC(=O)[C@@H]2C[C@@H](Oc3nccc4ccccc34)CN2C1=O [Compound 12, [4-Cyclopropanesulfonylaminocarbonyl-18-(isoquinolin-1-yloxy)-2,15-dioxo-3,16-diaza-tricyclo[14.3.0.0^4,6]nonadec-7-en-14-yl]-carbamic acid methyl ester] | < 50 | 
CCC1(S(=O)(=O)NC(=O)C23CC2C=CCCCOC(C)C(NC(=O)OC(C)C)C(=O)N2CC(Oc4nccc5cc(OC)ccc45)CC2C(=O)N3)CC1 (centres unmarked) [Compound 72] | < 50 | 
CC(C)(OC(=O)NC1CCCCCC=CC2CC2(C(=O)NS(=O)(=O)C2CC2)NC(=O)C2CC(Oc3nccc4ccccc34)CN2C1=O)C(F)(F)F (centres unmarked) [Compound 51] | < 50 | 
COc1ccc2c(OC3CC4C(=O)NC5(C(=O)NS(=O)(=O)C6CC6)CC5C=CCOCCCC(NC(=O)NC(C)(C)C)C(=O)N4C3)nccc2c1 (centres unmarked) [Compound 34] | < 50 | 
COc1ccc2c(OC3CC4C(=O)NC5(C(=O)O)CC5C=CCOCCCC(NC(=O)OC(C)(C)C)C(=O)N4C3)nccc2c1 (centres unmarked) [Compound 27, 14-tert-Butoxycarbonylamino-18-(6-methoxy-isoquinolin-1-yloxy)-2,15-dioxo-10-oxa-3,16-diaza-tricyclo[14.3.0.0^4,6]nonadec-7-ene-4-carboxylic acid] |  | IC50 [1]: 50 to 500 nM
CCC1(S(=O)(=O)NC(=O)C23CC2C=CCCC[S+]([O-])CC(NC(=O)OC(C)(C)C)C(=O)N2CC(Oc4nccc5cc(OC)ccc45)CC2C(=O)N3)CC1 (centres unmarked) [Compound 47] | < 50 | 
CC(C)(C)OC(=O)N[C@H]1CCCCC/C=C\[C@@H]2C[C@@]2(C(=O)NS(=O)(=O)C2(Cc3ccccc3)CC2)NC(=O)[C@@H]2C[C@@H](Oc3nccc4ccccc34)CN2C1=O [Compound 5, [4-(1-Benzyl-cyclopropanesulfonylaminocarbonyl)-18-(isoquinolin-1-yloxy)-2,15-dioxo-3,16-diaza-tricyclo[14.3.0.0^4,6]nonadec-7-en-14-yl]-carbamic acid tert-butyl ester] | < 50 | 
COc1c(NC2CCCCCC=CC3CC3(C(=O)NS(=O)(=O)C3CC3)NC(=O)C3CC(Oc4nccc5ccccc45)CN3C2=O)c(=O)c1=O (centres unmarked) [Compound 21] | < 50 | 
CCC1(S(=O)(=O)NC(=O)C23CC2C=CCOCCCC(NC(=O)NC2CCCC2)C(=O)N2CC(Oc4nccc5cc(OC)ccc45)CC2C(=O)N3)CC1 (centres unmarked) [Compound 38] | < 50 | 
O=C(NC1CCCCCC=CC2CC2(C(=O)NS(=O)(=O)C2CC2)NC(=O)C2CC(Oc3nccc4ccccc34)CN2C1=O)OC1CCCC1 (centres unmarked) [Compound 20] | < 50 | 
CS(=O)(=O)NC1CCCCCC=CC2CC2(C(=O)NS(=O)(=O)C2CC2)NC(=O)C2CC(Oc3nccc4ccccc34)CN2C1=O (centres unmarked) [Compound 25] | < 50 | 
CCC1(S(=O)(=O)NC(=O)C23CC2C=CCCCOC(C)C(NC(=O)NC2CCCC2)C(=O)N2CC(Oc4nccc5cc(OC)ccc45)CC2C(=O)N3)CC1 (centres unmarked) [Compound 73] | < 50 | 

Compound | IC50 [2] [nM] | also measured
COc1ccc2c(OC3CC4C(=O)NC5(C(=O)NS(=O)(=O)C6(C)CC6)CC5C=CCCCOC(C)C(NC(=O)OC(C)C)C(=O)N4C3)nccc2c1 (centres unmarked) [Compound 68] | < 50 | 
CC(=O)NC1CCCCCC=CC2CC2(C(=O)NS(=O)(=O)C2CC2)NC(=O)C2CC(Oc3nccc4ccccc34)CN2C1=O (centres unmarked) [Compound 26] | < 50 | 
COc1ccc2c(OC3CC4C(=O)NC5(C(=O)NS(=O)(=O)C6(C)CC6)CC5C=CCCCOC(C)C(NC(=O)NC5CCCC5)C(=O)N4C3)nccc2c1 (centres unmarked) [Compound 69] | < 50 | 
CC(C)(CCl)OC(=O)NC1CCCCCC=CC2CC2(C(=O)NS(=O)(=O)C2CC2)NC(=O)C2CC(Oc3nccc4ccccc34)CN2C1=O (centres unmarked) [Compound 52] | < 50 | 
COc1ccc2c(OC3C[C@H]4C(=O)N[C@]5(C(=O)NS(=O)(=O)C6CC6)C[C@H]5/C=C\CCCSC[C@H](NC(=O)OC(C)(C)C)C(=O)N4C3)nccc2c1 (some centres unmarked) [Compound 18B, [4-Cyclopropanesulfonylaminocarbonyl-18-(6-methoxy-isoquinolin-1-yloxy)-2,15-dioxo-12-thia-3,16-diaza-tricyclo[14.3.0.0^4,6]nonadec-7-en-14-yl]-carbamic acid tert-butyl ester] | < 50 | 
COc1ccc2c(O[C@@H]3C[C@H]4C(=O)N[C@]5(C(=O)O)C[C@H]5/C=C\CCCO[C@H](C)[C@H](NC(=O)OC(C)(C)C)C(=O)N4C3)nccc2c1 [Compound 61] |  | IC50 [1]: 500 to 5000 nM
COc1ccc2c(OC3CC4C(=O)NC5(C(=O)NS(=O)(=O)C6(C)CC6)CC5C=CCCCSCC(NC(=O)NC5CCCC5)C(=O)N4C3)nccc2c1 (centres unmarked) [Compound 43] | < 50 | 
CC(C)(C)OC(=O)N[C@H]1CCCCC/C=C\[C@@H]2C[C@@]2(C(=O)NS(=O)(=O)C2(C)CC2)NC(=O)[C@@H]2C[C@@H](Oc3nccc4ccccc34)CN2C1=O [Compound 8, [18-(Isoquinolin-1-yloxy)-4-(1-methyl-cyclopropanesulfonylaminocarbonyl)-2,15-dioxo-3,16-diaza-tricyclo[14.3.0.0^4,6]nonadec-7-en-14-yl]-carbamic acid tert-butyl ester] | < 50 | 
COc1ccc2c(O[C@@H]3C[C@H]4C(=O)N[C@]5(C(=O)NS(=O)(=O)C6CC6)C[C@H]5/C=C\CCCS(=O)(=O)C[C@H](NC(=O)OC(C)(C)C)C(=O)N4C3)nccc2c1 [Compound 19] | < 50 | 
CCC1(S(=O)(=O)NC(=O)C23CC2C=CCCCSCC(NC(=O)OC(C)C)C(=O)N2CC(Oc4nccc5cc(OC)ccc45)CC2C(=O)N3)CC1 (centres unmarked) [Compound 44] | < 50 | 
CC(C)(C)OC(=O)N[C@H]1CCCCC/C=C\[C@@H]2C[C@@]2(C(=O)NS(C)(=O)=O)NC(=O)[C@@H]2C[C@@H](Oc3nccc4ccccc34)CN2C1=O [Compound 2, [18-(Isoquinolin-1-yloxy)-4-methanesulfonylaminocarbonyl-2,15-dioxo-3,16-diaza-tricyclo[14.3.0.0^4,6]nonadec-7-en-14-yl]-carbamic acid tert-butyl ester] | < 50 | IC50 (read-out: IC50 against the BMS strain NS3/4A protease in the enzyme assay, BMS strain): 26 nM
CCC1(S(=O)(=O)NC(=O)C23CC2C=CCCCSCC(NC(=O)NC2CCCC2)C(=O)N2CC(Oc4nccc5cc(OC)ccc45)CC2C(=O)N3)CC1 (centres unmarked) [Compound 46] | < 50 | 
COc1ccc2c(OC3CC4C(=O)NC5(C(=O)NS(=O)(=O)C6CC6)CC5C=CCCCOC(C)C(NC(=O)OC(C)(C)C)C(=O)N4C3)nccc2c1 (centres unmarked) [Compound 62] | < 50 | 
O=C(CC1CC1)NC1CCCCCC=CC2CC2(C(=O)NS(=O)(=O)C2CC2)NC(=O)C2CC(Oc3nccc4ccccc34)CN2C1=O (centres unmarked) [Compound 22] | < 50 | 
COc1ccc2c(OC3CC4C(=O)NC5(C(=O)NS(=O)(=O)C6CC6)CC5C=CCCCCCC(NC(=O)N5CCCC5)C(=O)N4C3)nccc2c1 (centres unmarked) [Compound 60] | < 50 | 
